Test results taken from PMC5296751, “N,N Dimethylacetamide a drug excipient that acts as bromodomain ligand for osteoporosis treatment” (Scientific Reports, 2017).

Tests used:
BRD2 = BRD2 (Homo sapiens, UniProt P25440); experiment: AlphaScreen binding inhibition assay with recombinant human BRD2
BRD4 = target: T1, BRD4 (Homo sapiens, UniProt O60885); experiment: X-ray crystal structure at […] Å (soaked crystals); IC50 from AlphaScreen; type: binding
T1 construct: residues 42–168, BRD4-BD1 (N-terminal bromodomain)

Chain of BRD2 (P25440 whole entry): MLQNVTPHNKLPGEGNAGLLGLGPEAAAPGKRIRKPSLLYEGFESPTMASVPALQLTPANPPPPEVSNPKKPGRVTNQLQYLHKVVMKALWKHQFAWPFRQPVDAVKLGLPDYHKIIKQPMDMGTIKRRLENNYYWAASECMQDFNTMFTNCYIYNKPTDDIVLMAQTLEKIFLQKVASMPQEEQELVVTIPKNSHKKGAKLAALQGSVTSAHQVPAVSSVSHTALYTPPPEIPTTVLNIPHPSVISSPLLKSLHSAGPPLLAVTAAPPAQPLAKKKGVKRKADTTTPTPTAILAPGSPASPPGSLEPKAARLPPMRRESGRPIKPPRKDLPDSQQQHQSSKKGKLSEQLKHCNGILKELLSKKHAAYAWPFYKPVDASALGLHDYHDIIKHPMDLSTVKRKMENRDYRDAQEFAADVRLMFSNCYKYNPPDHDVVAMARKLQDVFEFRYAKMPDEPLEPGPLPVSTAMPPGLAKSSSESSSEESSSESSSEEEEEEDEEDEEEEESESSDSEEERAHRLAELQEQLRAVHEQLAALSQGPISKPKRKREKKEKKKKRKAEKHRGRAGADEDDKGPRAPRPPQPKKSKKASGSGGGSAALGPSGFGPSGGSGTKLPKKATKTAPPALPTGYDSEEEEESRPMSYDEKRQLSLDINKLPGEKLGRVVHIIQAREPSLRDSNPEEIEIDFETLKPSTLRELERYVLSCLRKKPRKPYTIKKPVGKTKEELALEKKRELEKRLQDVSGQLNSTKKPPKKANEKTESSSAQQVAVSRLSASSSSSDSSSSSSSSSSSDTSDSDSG

IC50 (BRD2): 11 mM | IC50 (BRD4): 6 mM
Compound: CC(=O)N(C)C [DMA, N,N-Dimethylacetamide]
